Experimental data taken from article PMC10952572, “Improved PIEZO1 agonism through 4‐benzoic acid modification of Yoda1” (British Journal of Pharmacology, 2023).

Tests used:
[1] = Plasma protein binding by rapid equilibrium dialysis; format: in vitro ADME; conditions: RED
Description: Mouse plasma protein binding was measured by rapid equilibrium dialysis (RED) performed by Malvern Panalytical (UK). Briefly, mouse plasma was warmed to 37°C for 10 min, and test compound stock solution was added to achieve a 5 μM solution; 500 μl of dialysis buffer was added to one side of the chamber of the device insert (Piercenet, Dialysis membrane MWCO 8000) housed within a heated Teflon block, and the incubation was initiated by the addition of 300 μl of the test compound protein solution to the opposite chamber. Equilibrium was reached by shaking the device on an orbital mixer at 37°C for 4 h; 50 μl aliquots from the buffer and the plasma chambers were transferred into separate wells of a deep‐well plate; 50 μl of plasma was added to the buffer samples, and 50 μl of buffer was added to the plasma samples; 300 μl of ice‐cold acetonitrile containing internal standard was added to precipitate the protein. Samples were then centrifuged (2700 × g at 4°C for 20 min) to pellet the protein, and the supernatant was analysed by LC–MS/MS to quantify the % input compound unbound to plasma protein with reference to a standard curve.

[2] = molecular target: T1, hPIEZO1 (Homo sapiens, UniProt Q92508); experiment: Pre-treatment with analogue before Yoda1 stimulus, Ca2+ assay in hPIEZO1-TREx cells; format: cell-based; conditions: hPIEZO1-TREx, 10 μM compound 30 min pretreatment before 2 μM Yoda1
T1 construct: expressed in transfected cells
T1 sequence (Q92508 whole entry): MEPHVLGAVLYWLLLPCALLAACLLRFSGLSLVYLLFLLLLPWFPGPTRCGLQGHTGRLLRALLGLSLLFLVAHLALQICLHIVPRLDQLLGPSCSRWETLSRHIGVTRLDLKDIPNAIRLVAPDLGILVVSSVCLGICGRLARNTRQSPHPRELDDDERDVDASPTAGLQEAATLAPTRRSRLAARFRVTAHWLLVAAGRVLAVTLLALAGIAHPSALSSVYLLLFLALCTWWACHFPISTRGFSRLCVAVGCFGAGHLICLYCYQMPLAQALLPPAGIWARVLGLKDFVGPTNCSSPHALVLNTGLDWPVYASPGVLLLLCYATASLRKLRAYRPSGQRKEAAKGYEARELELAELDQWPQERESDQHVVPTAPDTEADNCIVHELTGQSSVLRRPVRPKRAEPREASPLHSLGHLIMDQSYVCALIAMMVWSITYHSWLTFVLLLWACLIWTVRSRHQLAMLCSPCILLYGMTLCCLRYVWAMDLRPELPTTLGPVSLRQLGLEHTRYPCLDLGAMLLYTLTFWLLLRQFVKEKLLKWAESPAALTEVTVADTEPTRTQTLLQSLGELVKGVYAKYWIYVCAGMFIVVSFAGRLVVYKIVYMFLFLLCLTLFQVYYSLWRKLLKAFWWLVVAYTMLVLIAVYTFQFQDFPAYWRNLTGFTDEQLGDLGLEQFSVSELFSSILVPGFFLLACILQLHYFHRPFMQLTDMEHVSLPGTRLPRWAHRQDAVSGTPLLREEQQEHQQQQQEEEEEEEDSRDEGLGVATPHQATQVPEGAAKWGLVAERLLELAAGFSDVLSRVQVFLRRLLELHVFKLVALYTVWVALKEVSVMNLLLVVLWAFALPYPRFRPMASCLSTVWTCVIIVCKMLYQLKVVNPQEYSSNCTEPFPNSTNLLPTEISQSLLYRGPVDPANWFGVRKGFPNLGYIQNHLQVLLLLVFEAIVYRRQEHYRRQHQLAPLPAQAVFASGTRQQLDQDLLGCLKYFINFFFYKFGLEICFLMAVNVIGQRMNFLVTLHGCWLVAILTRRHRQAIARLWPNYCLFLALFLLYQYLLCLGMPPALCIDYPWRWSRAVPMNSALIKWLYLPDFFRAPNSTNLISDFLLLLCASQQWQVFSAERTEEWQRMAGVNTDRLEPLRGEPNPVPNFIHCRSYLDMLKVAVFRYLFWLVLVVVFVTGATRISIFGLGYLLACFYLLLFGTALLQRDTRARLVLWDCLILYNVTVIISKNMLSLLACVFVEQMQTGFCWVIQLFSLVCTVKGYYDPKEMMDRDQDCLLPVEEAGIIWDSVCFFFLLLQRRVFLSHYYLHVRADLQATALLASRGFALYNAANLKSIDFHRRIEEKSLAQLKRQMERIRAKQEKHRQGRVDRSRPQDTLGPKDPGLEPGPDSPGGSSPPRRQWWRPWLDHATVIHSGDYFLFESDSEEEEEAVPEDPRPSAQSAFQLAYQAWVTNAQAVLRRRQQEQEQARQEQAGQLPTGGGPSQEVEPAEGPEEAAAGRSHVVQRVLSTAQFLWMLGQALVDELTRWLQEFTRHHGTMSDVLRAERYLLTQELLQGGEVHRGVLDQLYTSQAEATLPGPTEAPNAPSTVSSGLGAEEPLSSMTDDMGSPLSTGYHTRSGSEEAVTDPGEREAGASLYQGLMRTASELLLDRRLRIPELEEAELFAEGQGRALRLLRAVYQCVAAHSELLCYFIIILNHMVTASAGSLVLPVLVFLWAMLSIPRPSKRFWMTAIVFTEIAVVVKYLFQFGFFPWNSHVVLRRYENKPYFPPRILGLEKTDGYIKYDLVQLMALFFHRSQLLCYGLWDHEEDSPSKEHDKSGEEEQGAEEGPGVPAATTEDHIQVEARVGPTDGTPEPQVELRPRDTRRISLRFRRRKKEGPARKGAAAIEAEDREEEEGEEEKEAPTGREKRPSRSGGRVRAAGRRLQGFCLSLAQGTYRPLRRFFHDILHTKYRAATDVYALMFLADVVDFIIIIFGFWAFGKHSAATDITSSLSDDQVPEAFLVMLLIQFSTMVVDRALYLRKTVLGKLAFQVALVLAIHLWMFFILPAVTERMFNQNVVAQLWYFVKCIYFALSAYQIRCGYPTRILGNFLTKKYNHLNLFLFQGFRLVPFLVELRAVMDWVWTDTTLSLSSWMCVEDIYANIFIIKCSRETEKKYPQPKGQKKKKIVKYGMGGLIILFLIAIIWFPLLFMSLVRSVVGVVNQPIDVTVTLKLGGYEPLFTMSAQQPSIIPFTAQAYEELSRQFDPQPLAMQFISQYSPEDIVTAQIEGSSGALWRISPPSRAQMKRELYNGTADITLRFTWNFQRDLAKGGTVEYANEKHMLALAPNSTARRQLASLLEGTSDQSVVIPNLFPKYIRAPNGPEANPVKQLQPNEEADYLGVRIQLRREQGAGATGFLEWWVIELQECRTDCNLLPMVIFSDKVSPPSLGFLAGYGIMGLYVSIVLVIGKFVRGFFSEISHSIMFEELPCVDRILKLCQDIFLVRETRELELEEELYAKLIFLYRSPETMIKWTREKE
Description: HEK 293‐TREx cells and their stably transfected derivatives or transiently transfected HEK 293 or HeLa cells were seeded at a density of 7.5 × 10^4 cells per well into poly‐D‐lysine‐coated 96‐well plates. The plates were either commercially pre‐coated with poly‐D‐lysine (Greiner Bio‐One #655946) or (Greiner Bio‐One #655090) were coated in‐house with 35 μl of a 10 μg·ml^−1 poly‐D‐lysine (Bio‐Techne, Cultrex # 3439‐100‐01) in sterile deionised water per well for at least 24 h and rinsed three times with 100 μl per well sterile D‐PBS before addition of cells. HUVECs were seeded into tissue culture‐treated 96‐well plates (Greiner Bio‐One #655090) at a density of either 2.5 × 10^4 cells 24 h before experimentation or 1.25 × 10^4 cells 48 h before experimentation. Cells were incubated with 2 μM Fura‐2‐AM (Molecular Probes™) in the presence of 0.01% (wt./vol.) pluronic F127 (Sigma‐Aldrich #P2443) in standard bath solution (SBS) for 1 h at 37°C. Cells were washed with SBS for 30 min at room temperature. Alternatively, if inhibitors were being tested, these were added at this time, immediately following a wash in SBS. (−)‐Englerin A (Akbulut et al., [2015]) was used in SBS containing 0.01% pluronic acid as a dispersing agent to minimise aggregation of compound. Unless otherwise stated, the final concentration of DMSO was 0.2% (vol./vol). Working 2000× stock solutions of test compounds were freshly made in DMSO and diluted 1000‐fold in SBS during the 30 min SBS wash/inhibitor pre‐incubation period to obtain 2× solutions for injection. When testing the highest concentration of Yoda1, KC159 and KC289 (30 μM), the final DMSO concentration was 0.6% (vol./vol.). Measurements were made at room temperature on a 96‐well fluorescence plate reader (FlexStation 3, Molecular Devices, Sunnyvale, CA, USA) controlled by SoftMax Pro software v7.0.3. Recipient wells containing 80 μl SBS/0.2% (vol./vol.) DMSO vehicle or inhibitor compound received 80 μl 2× compound at an injection rate of 1 μl·s^−1, and the pipette introduced liquids from a height setting of 70 μl. No trituration was performed. For recordings using Fura‐2, the change in intracellular Ca was indicated as the ratio of Fura‐2 emission (510 nm) intensities at 340 and 380 nm excitation. Photomultipliers were set to medium sensitivity. SBS contained 130 mM NaCl, 5 mM KCl, 8 mM D‐glucose, 10 mM HEPES, 1.2 mM MgCl2 and 1.5 mM CaCl2, and the pH was adjusted to 7.4 with NaOH. The solution was filtered through a 0.2 μm bottle‐top filter prior to use and handled aseptically thereafter.
In view of the effect of Dooku1 described above, we tested if there are inhibitory actions of the new Yoda1 analogues by pre‐treating cells at 10 μM for 30 min prior to adding 2 μM Yoda1 (Figures 9 and S9, SI 1). All except KC157 and KC161 inhibited the action of Yoda1 on hPIEZO1 channels (Figures 9a and S9, SI 1). […] KC159 and KC289 were agonists, and so they may inhibit the effect of Yoda1 simply by pre‐activating the channels. KC158, KC161 and KC162 are also agonists of mPIEZO1 channels (Figure 3). […] Only the 2‐benzoic acid analogue (KC157) lacks agonist or antagonist properties.

[3] = Kinetic and thermodynamic solubility assays (Malvern Panalytical); format: physicochemical; conditions: phosphate buffer, physiological pH 7.4; compared with Yoda1
Description: Kinetic and thermodynamic solubility assays were also performed by Malvern Panalytical (UK). Briefly, 1000 μl of 0.1 M phosphate buffer (pH 7.4) received either 25 μl of a 10 mM DMSO stock of test compound (for kinetic solubility assays) or 1 mg of test compound (for thermodynamic solubility assays). The mixtures were shaken on an orbital mixer to reach equilibrium for 1 or 24 h, respectively. The equilibrated solution was centrifuged, and the supernatant was removed to a fresh vial and then re‐centrifuged. High‐ and low‐dilution samples were prepared from the secondary supernatant and quantified by LC–MS/MS against a standard curve.

[4] = Microsomal half-life; format: in vitro ADME; conditions: mouse liver microsomes; for half-life at 1 μM: 1 μM compound
Description: Compound half‐lives were measured by Malvern Panalytical (UK). Briefly, microsomal mouse liver microsomes (1 mg protein·ml^−1) were pre‐incubated with NADPH cofactor solution at 37°C. Biotransformation was initiated by addition and mixing of 1 μM test compound in a final volume of 350 μl; 25 μl aliquots were removed at 5 min intervals for 35 min and quenched in 300 μl ice‐cold methanol containing internal standard. The protein in the samples was then precipitated by centrifugation at 4°C, and the supernatant was analysed by LC–MS/MS to quantify the test parent compound remaining at each time point.

Row | Compound | fraction unbound at 4 h, 5 μM ([1]; mouse, plasma, read-out: Fraction bound to plasma proteins (converted)) | 2 μM Yoda1-evoked peak ΔCa2+i (ΔF340/380), median fold difference compared to DMSO pretreatment [2] | Kinetic solubility [3] | Thermodynamic solubility [3] | Microsomal half-life relative to Yoda1 [4] | half-life at 1 μM [4] | Fraction bound to plasma proteins ([1]; mouse plasma, 5 μM)
1 | O=C(O)c1ccc(-c2nnc(SCc3c(Cl)cccc3Cl)s2)cc1 [KC159] | 0.006 | −1.7 fold | better solubility than Yoda1 | better solubility than Yoda1 | at least 20 times | 29.6 min | –
2 | O=C([O-])c1ccc(-c2nnc(SCc3c(Cl)cccc3Cl)s2)cc1.[K+] [KC289] | – | −2.5 fold | better solubility than Yoda1 | better solubility than Yoda1 | at least 20 times | 24.6 min | 99.35%
